Drawing on patent US20170050957A1, “4-AMINO-6-(HETEROCYCLIC)PICOLINATES AND 6-AMINO-2-(HETEROCYCLIC)PYRIMIDINE-4-CARBOXYLATES AND THEIR USE AS HERBICIDES” (Dow AgroSciences LLC, priority 2013, published 2017), this text covers pest or weed control and melting point for seven compounds.

Broadly, the melting point is the temperature of the solid-liquid transition.

Data set [1] has as its system Key Grass and Sedge Weeds as well as Grass Crops. The data set is described as follows: Post-emergent Test II herbicidal activity (Table 16). The data set is classed as in vivo. To be noted: post-emergence, 336 h; for pest or weed control at 35 g/ha: 35 g ai/ha; for pest or weed control at 70 g/ha: 70 g ai/ha; for pest or weed control at 140 g/ha: 140 g ai/ha. As to the method:
Post-emergent Test II: Seeds or nutlets of the desired test plant species were planted in Sun Gro Metro-Mix® 360 planting mixture, which typically has a pH of 6.0 to 6.8 and an organic matter content of about 30 percent, in plastic pots with a surface area of 64 square centimeters. When required to ensure good germination and healthy plants, a fungicide treatment and/or other chemical or physical treatment was applied. The plants were grown for 7-21 d in a greenhouse with an approximate 15 h photoperiod which was maintained at about 23-29° C. during the day and 22-28° C. during the night. Nutrients and water were added on a regular basis and supplemental lighting was provided with overhead metal halide 1000-Watt lamps as necessary. The plants were employed for testing when they reached the first or second true leaf stage.
A weighed amount, determined by the highest rate to be tested, of each test compound was placed in a 25 mL glass vial and was dissolved in 4 mL of a 97:3 v/v mixture of acetone and DMSO to obtain concentrated stock solutions. […] The concentrated stock solutions obtained were diluted with 20 mL of an aqueous mixture containing acetone, water, isopropyl alcohol, DMSO, Atplus 411F crop oil concentrate, and Triton® X-155 surfactant in a 48.5:39:10:1.5:1.0:0.02 v/v ratio to obtain spray solutions containing the highest application rates. Additional application rates were obtained by serial dilution of 12 mL of the high rate solution into a solution containing 2 mL of 97:3 v/v mixture of acetone and DMSO and 10 mL of an aqueous mixture containing acetone, water, isopropyl alcohol, DMSO, Atplus 411F crop oil concentrate, and Triton X-155 surfactant in a 48.5:39:10:1.5:1.0:0.02 v/v ratio to obtain 1/2×, 1/4×, 1/8× and 1/16× rates of the high rate. Compound requirements are based upon a 12 mL application volume at a rate of 187 liters per hectare (L/ha). Formulated compounds were applied to the plant material with an overhead Mandel track sprayer equipped with 8002E nozzles calibrated to deliver 187 L/ha over an application area of 0.503 square meters at a spray height of 18 inches (43 cm) above the average plant canopy height. Control plants were sprayed in the same manner with the solvent blank.
The treated plants and control plants were placed in a greenhouse as described above and watered by subirrigation to prevent wash-off of the test compounds. After 14 d, the condition of the test plants as compared with that of the untreated plants was determined visually and scored on a scale of 0 to 100 percent where 0 corresponds to no injury and 100 corresponds to complete kill.

The mark [2] stands for this setting: Cyperus esculentus, yellow nutsedge (Cyperus esculentus), 14 d, read-out: Visual Growth Reduction (%) 14 Days After Application, CYPES.
Setting [3] is: Echinochloa crus-galli, barnyardgrass (Echinochloa crus-galli), 14 d, read-out: Visual Growth Reduction (%) 14 Days After Application, ECHCG.
The mark [4] stands for this setting: Oryza sativa, rice (Oryza sativa), 14 d, read-out: Visual Growth Reduction (%) 14 Days After Application, ORYSA.
The mark [5] stands for this setting: Setaria faberi, giant foxtail (Setaria faberi), 14 d, read-out: Visual Growth Reduction (%) 14 Days After Application, SETFA.
[6] abbreviates: Triticum aestivum, wheat, spring (Triticum aestivum), 14 d, read-out: Visual Growth Reduction (%) 14 Days After Application, TRZAS.
[7] abbreviates: Zea mays, maize, corn (Zea mays), 14 d, read-out: Visual Growth Reduction (%) 14 Days After Application, ZEAMX.

Molecules are shown by their SMILES. Like-named read-outs stand apart in the source and are kept apart here.

In turn, `COC(=O)c1nc(-c2ccc3ccn([Si](C(C)C)(C(C)C)C(C)C)c3c2F)c(F)c(N)c1Cl` [Compound 1.12, methyl 4-amino-3-chloro-5-fluoro-6-(7-fluoro-1-(triisopropylsilyl)-1H-indol-6-yl)picolinate] came in with a melting point of 181 to 182 °C. Further, in data set [1] (setting [2]), the pest or weed control at 35 g/ha fell in the range of 0 to 29%, the pest or weed control at 70 g/ha lay within 0 to 29% and the pest or weed control at 140 g/ha fell in the range of 0 to 29%. Moreover, in data set [1] (setting [3]), the pest or weed control at 35 g/ha fell in the range of 0 to 29%, the pest or weed control at 70 g/ha was in the range of 0 to 29% and the pest or weed control at 140 g/ha was 85 to 94%. In data set [1] (setting [4]), the pest or weed control at 35 g/ha lay in the range of 0 to 29%, the pest or weed control at 70 g/ha was 0 to 29% and the pest or weed control at 140 g/ha lay in the range of 0 to 29%. In addition, in data set [1] (setting [5]), the pest or weed control at 35 g/ha is 75 to 84%, the pest or weed control at 70 g/ha lay in the range of 60 to 74% and the pest or weed control at 140 g/ha fell in the range of 75 to 84%. For the same compound, in data set [1] (setting [6]), the pest or weed control at 35 g/ha is 45 to 59%, the pest or weed control at 70 g/ha lay in the range of 0 to 29% and the pest or weed control at 140 g/ha was in the range of 0 to 29%. In data set [1] (setting [7]), the pest or weed control at 35 g/ha is 0 to 29%, the pest or weed control at 70 g/ha was 0 to 29% and the pest or weed control at 140 g/ha fell in the range of 0 to 29%.
The compound `COC(=O)c1nc(-c2ccc3[nH]nnc3c2)cc(N)c1Cl` [Compound 9.01] returned a melting point of 129 to 133 °C. In data set [1] (Cyperus esculentus, yellow nutsedge (Cyperus esculentus), 14 days after application, read-out: Visual Growth Reduction (%) 14 Days After Application CYPES), the pest or weed control at 140 g/ha was in the range of 95 to 100%. The pest or weed control at 140 g/ha in data set [1] (Echinochloa crus-galli, barnyardgrass (Echinochloa crus-galli), 14 days after application, read-out: Visual Growth Reduction (%) 14 Days After Application ECHCG) fell in the range of 95 to 100%. Further, in data set [1] (Oryza sativa, rice (Oryza sativa), 14 days after application, read-out: Visual Growth Reduction (%) 14 Days After Application ORYSA), the pest or weed control at 140 g/ha was 0 to 29%. Besides, the pest or weed control at 140 g/ha in data set [1] (Setaria faberi, giant foxtail (Setaria faberi), 14 days after application, read-out: Visual Growth Reduction (%) 14 Days After Application SETFA) is 0 to 29%. Also, the pest or weed control at 140 g/ha in data set [1] (Triticum aestivum, wheat, spring (Triticum aestivum), 14 days after application, read-out: Visual Growth Reduction (%) 14 Days After Application TRZAS) was in the range of 0 to 29%. The pest or weed control at 140 g/ha in data set [1] (Zea mays, maize, corn (Zea mays), 14 days after application, read-out: Visual Growth Reduction (%) 14 Days After Application ZEAMX) fell in the range of 0 to 29%.
Compound `Nc1c(F)c(-c2ccc3ccoc3c2)nc(C(=O)O)c1Cl` [Compound 2.08] yielded a melting point of 168 to 170 °C. In data set [1] (setting [2]), the pest or weed control at 35 g/ha was 0 to 29%, the pest or weed control at 70 g/ha lay within 0 to 29% and the pest or weed control at 140 g/ha fell in the range of 0 to 29%. In data set [1] (setting [3]), the pest or weed control at 35 g/ha lay within 85 to 94%, the pest or weed control at 70 g/ha was 85 to 94% and the pest or weed control at 140 g/ha was in the range of 95 to 100%. Further, in data set [1] (setting [4]), the pest or weed control at 35 g/ha lay in the range of 0 to 29%, the pest or weed control at 70 g/ha lay in the range of 30 to 44% and the pest or weed control at 140 g/ha lay in the range of 30 to 44%. In data set [1] (setting [5]), the pest or weed control at 35 g/ha lay in the range of 45 to 59%, the pest or weed control at 70 g/ha was 60 to 74% and the pest or weed control at 140 g/ha was in the range of 85 to 94%. In data set [1] (setting [6]), the pest or weed control at 35 g/ha lay within 0 to 29%, the pest or weed control at 70 g/ha was in the range of 0 to 29% and the pest or weed control at 140 g/ha lay within 0 to 29%. Further, in data set [1] (setting [7]), the pest or weed control at 35 g/ha was in the range of 45 to 59%, the pest or weed control at 70 g/ha fell in the range of 60 to 74% and the pest or weed control at 140 g/ha was in the range of 60 to 74%.
Compound `C=Cc1c(C(=O)OC)nc(-c2ccc3cc[nH]c3c2F)c(F)c1N` [Compound 1.18, Methyl 4-amino-5-fluoro-6-(7-fluoro-1H-indol-6-yl)-3-vinylpicolinate] showed a melting point of 164 to 166 °C.
On the same count and under the same terms, then `COC(=O)c1nc(-c2ccc3nc[nH]c3c2)c(F)c(N)c1Cl` [Compound 7.01], with 219 to 221 °C; and `Cn1cnc2ccc(-c3nc(C(=O)O)c(Cl)c(N)c3F)cc21` [Compound 7.03], with 230 to 235 °C (dec.).
As to `Cn1ccc2ccc(-c3nc(C(=O)O)c(Cl)c(N)c3F)cc21` [Compound 1.11], the melting point fell in the range of 173 to 176 °C.
